# Measured values as given in PubChem BioAssay (NCI).
#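 Results reflect a 48-hour exposure of cells in 96-well plates to compound at five concentrations. GI50: concentration for 50% inhibition of growth. Definition used: TGI = concentration required for complete inhibition of growth.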
# Legend:
# Test in all cases: inhibition of tumour cell growth, NCI panel, 48 h
# HCC-2998 colon = system: HCC-2998 colon
# HL-60(TB) leukemia = system: HL-60(TB) leukemia
# HT29 colon = system: HT29 colon
# IGROV1 ovarian = system: IGROV1 ovarian
# NCI-H226 lung = system: NCI-H226 lung
# OVCAR-3 ovarian = system: OVCAR-3 ovarian
# OVCAR-8 ovarian = system: OVCAR-8 ovarian
# PC-3 prostate = system: PC-3 prostate
# SF-295 CNS = system: SF-295 CNS
# SN12C renal = system: SN12C renal
compound,measurement,setting,value
CC1=Nc2ccccc2/C1=C\c1c(C)[nH]c2ccccc12,TGI,HCC-2998 colon,30.1 µM
same,TGI,HL-60(TB) leukemia,50.2 µM
same,TGI,HT29 colon,25.4 µM
same,TGI,IGROV1 ovarian,25.4 µM
same,TGI,NCI-H226 lung,33.2 µM
same,TGI,OVCAR-3 ovarian,34.8 µM
same,TGI,OVCAR-8 ovarian,27 µM
same,TGI,PC-3 prostate,39.2 µM
same,TGI,SF-295 CNS,43 µM
same,TGI,SN12C renal,72.5 µM
COC(=O)COc1ccc(/C=C2/N=C(c3ccccc3)N(c3c(C)n(C)n(-c4ccccc4)c3=O)C2=O)cc1,GI50,HCC-2998 colon,16.9 µM
same,TGI,HCC-2998 colon,33.4 µM
same,GI50,HL-60(TB) leukemia,26.2 µM
same,TGI,HL-60(TB) leukemia,67.2 µM
same,GI50,HT29 colon,18.3 µM
same,TGI,HT29 colon,35.7 µM
same,GI50,IGROV1 ovarian,23.6 µM
same,TGI,IGROV1 ovarian,42.3 µM
same,GI50,NCI-H226 lung,25.3 µM
same,TGI,NCI-H226 lung,63.5 µM
same,GI50,OVCAR-3 ovarian,16.6 µM
same,TGI,OVCAR-3 ovarian,30.7 µM
same,GI50,OVCAR-8 ovarian,18.8 µM
same,TGI,OVCAR-8 ovarian,33.7 µM
same,GI50,PC-3 prostate,19.6 µM
same,TGI,PC-3 prostate,37.9 µM
same,GI50,SF-295 CNS,33.5 µM
same,TGI,SF-295 CNS,> 100 µM
same,GI50,SN12C renal,22.5 µM
same,TGI,SN12C renal,49 µM
CC1=Cc2ccc(C)cc2C(=O)C1=O,TGI,HCC-2998 colon,30.8 µM
same,TGI,HL-60(TB) leukemia,4.13 µM
same,TGI,HT29 colon,49.3 µM
same,TGI,IGROV1 ovarian,29.4 µM
same,TGI,NCI-H226 lung,> 100 µM
same,TGI,OVCAR-3 ovarian,49.4 µM
same,TGI,OVCAR-8 ovarian,> 73.8 µM
same,TGI,PC-3 prostate,43 µM
same,TGI,SF-295 CNS,34.7 µM
same,TGI,SN12C renal,12.8 µM
CSCCCNC(=O)c1ccc2c(c1)/C(=C/c1[nH]c(C)cc1C)C(=O)N2,GI50,HCC-2998 colon,4.95 µM
same,TGI,HCC-2998 colon,> 100 µM
same,GI50,HL-60(TB) leukemia,2.54 µM
same,TGI,HL-60(TB) leukemia,> 100 µM
same,GI50,HT29 colon,4.95 µM
same,TGI,HT29 colon,> 100 µM
same,GI50,IGROV1 ovarian,0.421 µM
same,TGI,IGROV1 ovarian,> 100 µM
same,GI50,NCI-H226 lung,2.24 µM
same,TGI,NCI-H226 lung,> 100 µM
same,GI50,OVCAR-3 ovarian,1.98 µM
same,TGI,OVCAR-3 ovarian,> 100 µM
same,GI50,OVCAR-8 ovarian,1.95 µM
same,TGI,OVCAR-8 ovarian,> 100 µM
same,GI50,PC-3 prostate,0.647 µM
same,TGI,PC-3 prostate,> 100 µM
same,GI50,SF-295 CNS,2.15 µM
same,TGI,SF-295 CNS,> 100 µM
same,GI50,SN12C renal,0.571 µM
same,TGI,SN12C renal,> 100 µM
C=C1CCC2(C#N)[C@H]3[C@H](CC[C@@H]2C)[C@@H](C)C[C@@H](CC(C)(C)NC(=O)CN2CCC2=O)[C@H]13 (some centres not stated),GI50,HCC-2998 colon,7 µM
same,TGI,HCC-2998 colon,22.8 µM
same,GI50,HL-60(TB) leukemia,5.05 µM
same,TGI,HL-60(TB) leukemia,37 µM
same,GI50,HT29 colon,10.5 µM
same,TGI,HT29 colon,24.8 µM
same,GI50,IGROV1 ovarian,6.03 µM
same,TGI,IGROV1 ovarian,23 µM
same,GI50,NCI-H226 lung,11.2 µM
same,TGI,NCI-H226 lung,33.7 µM
same,GI50,OVCAR-3 ovarian,3.72 µM
same,TGI,OVCAR-3 ovarian,15 µM
same,GI50,OVCAR-8 ovarian,4.94 µM
same,TGI,OVCAR-8 ovarian,38.1 µM
same,GI50,PC-3 prostate,4.7 µM
same,TGI,PC-3 prostate,36.6 µM
same,GI50,SF-295 CNS,3.27 µM
same,TGI,SF-295 CNS,13.4 µM
same,GI50,SN12C renal,11.9 µM
same,TGI,SN12C renal,49.5 µM
O=C1/C(=C/c2ccccc2)CN(C(=O)CCN2CCCC2)C/C1=C\c1ccccc1,TGI,HCC-2998 colon,3.22 µM
same,TGI,HL-60(TB) leukemia,1.18 µM
same,TGI,HT29 colon,2.54 µM
same,TGI,IGROV1 ovarian,7.75 µM
same,TGI,NCI-H226 lung,13.9 µM
same,TGI,OVCAR-3 ovarian,7.66 µM
same,TGI,OVCAR-8 ovarian,6.17 µM
same,TGI,PC-3 prostate,2.42 µM
same,TGI,SF-295 CNS,2.6 µM
same,TGI,SN12C renal,3.16 µM
C=C1C(=O)OC2CC(C)C3CC(O)OC(OCC)C3(C)CC12 (configuration not stated),TGI,HCC-2998 colon,30.6 µM
same,TGI,HL-60(TB) leukemia,> 30 µM
same,TGI,HT29 colon,38.5 µM
same,TGI,IGROV1 ovarian,48.1 µM
same,TGI,NCI-H226 lung,63.1 µM
same,TGI,OVCAR-3 ovarian,31.3 µM
same,TGI,OVCAR-8 ovarian,31.4 µM
same,TGI,PC-3 prostate,45.9 µM
same,TGI,SF-295 CNS,90.6 µM
same,TGI,SN12C renal,33.2 µM
Cc1cc(N=C2C=C(Br)C(=O)C(Br)=C2)cc(CN(CC(=O)O)CC(=O)O)c1O,TGI,HCC-2998 colon,> 100 µM
same,TGI,HL-60(TB) leukemia,> 100 µM
same,TGI,HT29 colon,> 100 µM
same,TGI,IGROV1 ovarian,> 100 µM
same,TGI,NCI-H226 lung,> 100 µM
same,TGI,OVCAR-3 ovarian,> 100 µM
same,TGI,OVCAR-8 ovarian,> 100 µM
same,TGI,PC-3 prostate,> 100 µM
same,TGI,SF-295 CNS,> 100 µM
same,TGI,SN12C renal,> 100 µM
COc1cc2c(cc1OC)C(=O)/C(=C/c1cc(-c3ccc4c(c3)OCO4)n[nH]1)C2,GI50,HCC-2998 colon,1.88 µM
same,TGI,HCC-2998 colon,3.44 µM
same,GI50,HL-60(TB) leukemia,2.07 µM
same,TGI,HL-60(TB) leukemia,5.59 µM
same,GI50,HT29 colon,1.45 µM
same,TGI,HT29 colon,3.09 µM
same,GI50,IGROV1 ovarian,1.89 µM
same,TGI,IGROV1 ovarian,4.58 µM
same,GI50,OVCAR-3 ovarian,1.41 µM
same,TGI,OVCAR-3 ovarian,2.8 µM
same,GI50,OVCAR-8 ovarian,1.57 µM
same,TGI,OVCAR-8 ovarian,3.05 µM
same,GI50,PC-3 prostate,1.29 µM
same,TGI,PC-3 prostate,2.92 µM
same,GI50,SF-295 CNS,1.64 µM
same,TGI,SF-295 CNS,3.26 µM
same,GI50,SN12C renal,1.59 µM
same,TGI,SN12C renal,2.99 µM
Cc1nc(Nc2ccccn2)sc1C(=O)/C=C/c1ccc(Cl)cc1,GI50,HCC-2998 colon,0.383 µM
same,TGI,HCC-2998 colon,9.62 µM
same,GI50,HL-60(TB) leukemia,0.353 µM
same,GI50,HT29 colon,0.47 µM
same,TGI,HT29 colon,47.5 µM
same,GI50,IGROV1 ovarian,0.413 µM
same,TGI,IGROV1 ovarian,30.6 µM
same,GI50,NCI-H226 lung,1.09 µM
same,TGI,NCI-H226 lung,26 µM
same,GI50,OVCAR-3 ovarian,0.325 µM
same,TGI,OVCAR-3 ovarian,5.48 µM
same,GI50,OVCAR-8 ovarian,0.472 µM
same,TGI,OVCAR-8 ovarian,> 100 µM
same,GI50,PC-3 prostate,0.368 µM
same,TGI,PC-3 prostate,> 100 µM
same,GI50,SF-295 CNS,0.308 µM
same,TGI,SF-295 CNS,23 µM
same,GI50,SN12C renal,0.547 µM
same,TGI,SN12C renal,> 47.4 µM
O=c1/c(=C\c2ccc(F)cc2)sc2n1C(c1ccc(F)cc1)C1=C(N=2)c2ccc3ccccc3c2OCC1 (configuration not stated),GI50,HCC-2998 colon,> 100 µM
same,TGI,HCC-2998 colon,> 100 µM
same,GI50,HL-60(TB) leukemia,> 100 µM
same,TGI,HL-60(TB) leukemia,> 100 µM
same,GI50,HT29 colon,> 100 µM
same,TGI,HT29 colon,> 100 µM
same,GI50,IGROV1 ovarian,> 100 µM
same,TGI,IGROV1 ovarian,> 100 µM
same,GI50,NCI-H226 lung,> 100 µM
same,TGI,NCI-H226 lung,> 100 µM
same,GI50,OVCAR-3 ovarian,> 100 µM
same,TGI,OVCAR-3 ovarian,> 100 µM
same,GI50,OVCAR-8 ovarian,> 100 µM
same,TGI,OVCAR-8 ovarian,> 100 µM
same,GI50,PC-3 prostate,> 52.8 µM
same,TGI,PC-3 prostate,> 100 µM
same,GI50,SF-295 CNS,> 100 µM
same,TGI,SF-295 CNS,> 100 µM
same,GI50,SN12C renal,> 100 µM
same,TGI,SN12C renal,> 100 µM
O=C(Oc1ccc(CO[N+](=O)[O-])cc1)c1ccccc1,GI50,HCC-2998 colon,0.201 µM
same,TGI,HCC-2998 colon,0.447 µM
same,GI50,HL-60(TB) leukemia,0.0514 µM
same,TGI,HL-60(TB) leukemia,0.267 µM
same,GI50,HT29 colon,0.136 µM
same,TGI,HT29 colon,0.27 µM
same,GI50,IGROV1 ovarian,0.203 µM
same,TGI,IGROV1 ovarian,0.411 µM
same,GI50,NCI-H226 lung,0.214 µM
same,TGI,NCI-H226 lung,0.518 µM
same,GI50,OVCAR-3 ovarian,0.153 µM
same,TGI,OVCAR-3 ovarian,0.295 µM
same,GI50,OVCAR-8 ovarian,0.153 µM
same,TGI,OVCAR-8 ovarian,0.288 µM
same,GI50,PC-3 prostate,0.13 µM
same,TGI,PC-3 prostate,0.301 µM
same,GI50,SF-295 CNS,0.194 µM
same,TGI,SF-295 CNS,0.631 µM
same,GI50,SN12C renal,0.216 µM
same,TGI,SN12C renal,0.701 µM
c1ccc2c(c1)SCCCSCCSCCCS2,TGI,HCC-2998 colon,> 100 µM
same,TGI,HL-60(TB) leukemia,> 100 µM
same,TGI,HT29 colon,> 100 µM
same,TGI,IGROV1 ovarian,> 100 µM
same,TGI,OVCAR-3 ovarian,> 100 µM
same,TGI,OVCAR-8 ovarian,> 100 µM
same,TGI,PC-3 prostate,> 100 µM
same,TGI,SF-295 CNS,> 100 µM
same,TGI,SN12C renal,> 100 µM
COc1ccc(-c2nc(-c3nc4ccc(F)cc4[nH]3)c3ccccn23)cc1,GI50,HCC-2998 colon,6.59 µM
same,TGI,HCC-2998 colon,> 100 µM
same,GI50,HL-60(TB) leukemia,39.8 µM
same,TGI,HL-60(TB) leukemia,> 100 µM
same,GI50,HT29 colon,7.13 µM
same,TGI,HT29 colon,> 100 µM
same,GI50,IGROV1 ovarian,6.63 µM
same,TGI,IGROV1 ovarian,47.2 µM
same,GI50,NCI-H226 lung,2.72 µM
same,TGI,NCI-H226 lung,9.06 µM
same,GI50,OVCAR-3 ovarian,6.14 µM
same,TGI,OVCAR-3 ovarian,27.1 µM
same,GI50,OVCAR-8 ovarian,3.76 µM
same,TGI,OVCAR-8 ovarian,23.4 µM
same,GI50,PC-3 prostate,6.14 µM
same,TGI,PC-3 prostate,46.9 µM
same,GI50,SN12C renal,13.3 µM
same,TGI,SN12C renal,> 100 µM
C1CC[N-]CC1.CC(=N\O)/C(C)=N/O.CC(=N\O)/C(C)=N/O.OC1[CH-]CCCC1.[Co+2],GI50,HL-60(TB) leukemia,21.7 µM
same,TGI,HL-60(TB) leukemia,72.5 µM
same,GI50,HT29 colon,72.5 µM
same,TGI,HT29 colon,> 100 µM
same,GI50,IGROV1 ovarian,44.9 µM
same,TGI,IGROV1 ovarian,> 100 µM
same,GI50,NCI-H226 lung,> 100 µM
same,TGI,NCI-H226 lung,> 100 µM
same,GI50,OVCAR-3 ovarian,52 µM
same,TGI,OVCAR-3 ovarian,> 100 µM
same,GI50,OVCAR-8 ovarian,28.9 µM
same,TGI,OVCAR-8 ovarian,> 100 µM
same,GI50,PC-3 prostate,36.6 µM
same,TGI,PC-3 prostate,> 100 µM
same,GI50,SF-295 CNS,> 100 µM
same,TGI,SF-295 CNS,> 100 µM
same,GI50,SN12C renal,53.7 µM
same,TGI,SN12C renal,> 100 µM
